Measurements published in ChEMBL document CHEMBL1136657, “Novel ether derivatives of mannopeptimycin glycopeptide antibiotic” (2003).
In brackets after ≈: the same amount, converted by molar mass. Each block holds one molecule with its values, some of them ahead of it.

Experiments:
[1] = system: Candida albicans; assay: Minimum inhibitory concentration against Candida albicans was determined; format: functional
[2] = system: Enterococcus faecium; assay: Minimum inhibitory concentration against Enterococcus faecium was determined; Range is 2-4 ug/mL; format: functional
[3] = system: Enterococcus faecalis; assay: Minimum inhibitory concentration against Enterococcus faecalis was determined; Range is 2-4 ug/mL; format: functional
[4] = Minimum inhibitory concentration against Gram(-) sp. was determined; Range is 32->128 ug/mL; format: functional
[5] = system: Mus musculus; assay: In vivo activity against Staphylococcus aureus smith was determined after iv administration in mice; format: functional
[6] = system: Staphylococcus aureus; assay: Minimum inhibitory concentration against Staphylococcus aureus smith; format: functional
[7] = system: Staphylococcus aureus; assay: Minimum inhibitory concentration against Staphylococcus aureus (MRCNS) was determined; Range is 0.25-1 ug/mL; format: functional
[8] = system: Staphylococcus aureus; assay: Minimum inhibitory concentration against Staphylococcus aureus (MRSA) was determined; Range is […] ug/mL; format: functional
[9] = system: Staphylococcus aureus; assay: Minimum inhibitory concentration against Staphylococcus aureus (MSCNS) was determined; Range is <=0.12-0.5 ug/mL; format: functional
[10] = system: Streptococcus; assay: Minimum inhibitory concentration against Streptococcus was determined; format: functional
[11] = system: Staphylococcus aureus; assay: Minimum inhibitory concentration against Staphylococcus aureus (MSSA) was determined; Range is 1-4 ug/mL; format: functional
[12] = system: Enterococcus faecalis; assay: Minimum inhibitory concentration against Enterococcus faecalis was determined; format: functional
[13] = Minimum inhibitory concentration against Gram(-) sp. was determined; format: functional
[14] = system: Staphylococcus aureus; assay: Minimum inhibitory concentration against Staphylococcus aureus (MRCNS) was determined; Range is 1-4 ug/mL; format: functional
[15] = system: Staphylococcus aureus; assay: Minimum inhibitory concentration against Staphylococcus aureus (MRSA) was determined; format: functional
[16] = system: Staphylococcus aureus; assay: Minimum inhibitory concentration against Staphylococcus aureus (MSCNS) was determined; Range is 0.5-1 ug/mL; format: functional
[17] = system: Staphylococcus aureus; assay: Minimum inhibitory concentration against Staphylococcus aureus (MSSA) was determined; Range is 2-4 ug/mL; format: functional
[18] = system: Escherichia coli; assay: Minimum inhibitory concentration against Escherichia coli (GC 2203) was determined; format: functional
[19] = system: Enterococcus faecalis; assay: Minimum inhibitory concentration against Enterococcus faecalis (GC 2242) was determined; format: functional
[20] = system: Enterococcus faecalis; assay: Minimum inhibitory concentration against Enterococcus faecalis (GC 2691) was determined; format: functional
[21] = system: Enterococcus avium; assay: Minimum inhibitory concentration against Enterococcus avium (GC 4558) was determined; format: functional
[22] = system: Enterococcus faecalis; assay: Minimum inhibitory concentration against Enterococcus faecalis (GC 4552) was determined; format: functional
[23] = system: Enterococcus faecalis; assay: Minimum inhibitory concentration against Enterococcus faecalis (GC 4553) was determined; format: functional
[24] = system: Enterococcus faecalis; assay: Minimum inhibitory concentration against Enterococcus faecalis (GC 4554) was determined; format: functional
[25] = system: Escherichia coli; assay: Minimum inhibitory concentration against Escherichia coli (GC 4560) was determined; format: functional
[26] = system: Escherichia coli; assay: Minimum inhibitory concentration against Escherichia coli (GC 4564) was determined; format: functional
[27] = system: Enterococcus faecium; assay: Minimum inhibitory concentration against Enterococcus faecium (GC 2243) was determined; format: functional
[28] = system: Enterococcus faecalis; assay: Minimum inhibitory concentration against Enterococcus faecalis (GC 4555) was determined; format: functional
[29] = system: Enterococcus faecalis; assay: Minimum inhibitory concentration against Enterococcus faecalis (GC 6189) was determined; format: functional
[30] = system: Morganella morganii; assay: Minimum inhibitory concentration against Morganella morganii (GC 4381) was determined; format: functional
[31] = system: Pseudomonas aeruginosa; assay: Minimum inhibitory concentration against Pseudomonas aeruginosa (GC 2214) control was determined; format: functional
[32] = system: Micrococcus luteus; assay: Minimum inhibitory concentration against Sarcina lutea (GC 4562) was determined; format: functional
[33] = Minimum inhibitory concentration against SCN (GC 4548) was determined; format: functional
[34] = Minimum inhibitory concentration against SCN (GC 4549) was determined; format: functional
[35] = Minimum inhibitory concentration against SCN (GC 4551) was determined; format: functional
[36] = Minimum inhibitory concentration against SCN (GC 6257) was determined; format: functional
[37] = Minimum inhibitory concentration against SCN (GC 4547) was determined; format: functional
[38] = system: Streptococcus pyogenes; assay: Minimum inhibitory concentration against Streptococcus pyogenes (GC 4563) was determined; format: functional
[39] = system: Streptococcus agalactiae; assay: Minimum inhibitory concentration against Streptococcus agalactiae (GC4564) was determined; format: functional
[40] = system: Streptococcus pneumoniae; assay: Minimum inhibitory concentration against Streptococcus pneumoniae (GC 1894) was determined; format: functional
[41] = system: Streptococcus pneumoniae; assay: Minimum inhibitory concentration against Streptococcus pneumoniae (GC 4565) was determined; format: functional
[42] = system: Streptococcus pneumoniae; assay: Minimum inhibitory concentration against Streptococcus pneumoniae (GC 6242) was determined; format: functional
[43] = system: Streptococcus; assay: Minimum inhibitory concentration against Streptococcus was determined; Range is <=0.12-0.5 ug/mL; format: functional
[44] = system: Enterococcus faecalis; assay: Minimum inhibitory concentration against Enterococcus faecalis (GC 3059) was determined; format: functional
[45] = system: Candida albicans; assay: Minimum inhibitory concentration against Candida albicans GC 3066 was determined; format: functional
[46] = system: Enterococcus faecalis; assay: microbe, parasite or virus in culture
[47] = system: Staphylococcus haemolyticus; assay: Minimum inhibitory concentration against Staphylococcus haemolyticus (GC 4546) was determined
[48] = Mus musculus, iv, read-out: ED50

MIC [1]: > 128 µg/mL
MIC [2]: 2 µg/mL (≈ 1.35 µM)
MIC [3]: 2 µg/mL (≈ 1.35 µM)
MIC [4]: 32 µg/mL (≈ 21.7 µM)
MIC [6]: 1 µg/mL (≈ 0.677 µM)
MIC [7]: 0.25 µg/mL (≈ 0.169 µM)
MIC [8]: 1 µg/mL (≈ 0.677 µM)
MIC [9]: ≤ 0.12 µg/mL
MIC [10]: < 0.12 µg/mL
MIC [11]: 1 µg/mL (≈ 0.677 µM)
SMILES: C[C@@H](c1ccccc1)[C@@H]1NC(=O)CNC(=O)[C@H](CO)NC(=O)[C@@H]([C@@H](O)[C@@H]2CN=C(N)N2[C@H]2O[C@H](O)[C@@H](O)[C@H](O)[C@@H]2O)NC(=O)[C@H]([C@@H](O)[C@@H]2CN=C(N)N2)NC(=O)[C@@H](Cc2ccc(O[C@H]3O[C@H](CO)[C@@H](O[C@H]4O[C@H](CO)[C@@H](OCc5ccc(OCc6ccccc6)cc5)[C@H](O)[C@@H]4O)[C@H](O)[C@@H]3O)cc2)NC1=O
ED50 [5, 48]: 0.06 mg/kg

MIC [1]: > 128 µg/mL
MIC [2]: 2 µg/mL (≈ 1.35 µM)
MIC [12]: 4 µg/mL (≈ 2.71 µM)
MIC [13]: > 128 µg/mL
MIC [6]: 2 µg/mL (≈ 1.35 µM)
MIC [14]: 1 µg/mL (≈ 0.677 µM)
MIC [15]: 4 µg/mL (≈ 2.71 µM)
MIC [16]: 0.5 µg/mL (≈ 0.338 µM)
MIC [10]: ≤ 0.12 µg/mL
MIC [17]: 2 µg/mL (≈ 1.35 µM)
SMILES: C[C@@H](c1ccccc1)[C@@H]1NC(=O)CNC(=O)[C@H](CO)NC(=O)[C@@H]([C@@H](O)[C@@H]2CN=C(N)N2[C@H]2O[C@H](O)[C@@H](O)[C@H](O)[C@@H]2O)NC(=O)[C@H]([C@@H](O)[C@@H]2CN=C(N)N2)NC(=O)[C@@H](Cc2ccc(O[C@H]3O[C@H](CO)[C@@H](OC4O[C@H](COCc5ccc(OCc6ccccc6)cc5)[C@@H](O)[C@H](O)[C@@H]4O)[C@H](O)[C@@H]3O)cc2)NC1=O (stereo partly specified)
ED50 [5, 48]: 0.25 mg/kg

SMILES: CN[C@H](CC(C)C)C(=O)N[C@H]1C(=O)N[C@@H](CC(N)=O)C(=O)N[C@H]2C(=O)N[C@H]3C(=O)N[C@H](C(=O)N[C@H](C(=O)O)c4cc(O)cc(O)c4-c4cc3ccc4O)[C@H](O)c3ccc(c(Cl)c3)Oc3cc2cc(c3O[C@@H]2O[C@H](CO)[C@@H](O)[C@H](O)[C@H]2O[C@H]2C[C@](C)(N)[C@H](O)[C@H](C)O2)Oc2ccc(cc2Cl)[C@H]1O [VANCOMYCIN]
MIC [1]: > 128 µg/mL
MIC [18]: > 64 µg/mL
MIC [19]: > 64 µg/mL
MIC [20]: 1 µg/mL (≈ 0.69 µM)
MIC [21]: > 64 µg/mL
MIC [22]: 1 µg/mL (≈ 0.69 µM)
MIC [23]: 0.5 µg/mL (≈ 0.345 µM)
MIC [24]: 0.5 µg/mL (≈ 0.345 µM)
MIC [25]: 0.5 µg/mL (≈ 0.345 µM)
MIC [26]: > 64 µg/mL
MIC [27]: > 64 µg/mL
MIC [28]: 2 µg/mL (≈ 1.38 µM)
MIC [29]: > 64 µg/mL
MIC [13]: > 128 µg/mL
ED50 [5]: 1 mg/kg
ED50 [5, 48]: 0.5 mg/kg
MIC [30]: > 64 µg/mL
MIC [31]: > 64 µg/mL
MIC [32]: 1 µg/mL (≈ 0.69 µM)
MIC [33]: 2 µg/mL (≈ 1.38 µM)
MIC [34]: 0.5 µg/mL (≈ 0.345 µM)
MIC [35]: 2 µg/mL (≈ 1.38 µM)
MIC [36]: 0.5 µg/mL (≈ 0.345 µM)
MIC [37]: 2 µg/mL (≈ 1.38 µM)
MIC [38]: 0.25 µg/mL (≈ 0.173 µM)
MIC [39]: 0.5 µg/mL (≈ 0.345 µM)
MIC [40]: 0.12 µg/mL (≈ 0.0828 µM)
MIC [41]: 0.25 µg/mL (≈ 0.173 µM)
MIC [42]: 0.5 µg/mL (≈ 0.345 µM)
MIC [43]: ≤ 0.12 µg/mL
MIC [44]: > 64 µg/mL
MIC [45]: > 64 µg/mL
MIC [46]: 0.5 µg/mL (≈ 0.345 µM)
MIC [47]: 1 µg/mL (≈ 0.69 µM)
